{"source": "ChEMBL document CHEMBL5346962", "about": "“Discovery of Sulanemadlin (ALRN-6924), the First Cell-Permeating, Stabilized α-Helical Peptide in Clinical Development” (J Med Chem, 2023)", "key": {"[1]": {"experiment": "Cmax in rat at 2.5 mg/kg by LC-MS/MS analysis", "format": "ADME, organism-based", "set-up": "dose 2.5 mg/kg", "details": "in vivo"}, "BT-474": {"tested_on": "BT-474", "experiment": "[…] chemotherapy-induced apoptosis in human BT-474 cells assessed as decrease in caspase-3/7 level at 4.6 to 10 uM preincubated for 16 hrs followed by doxorubicin addition measured after 32 hrs", "format": "functional, cell-based", "details": "dose 4.6-10 µM, time 48.0 hrs"}, "[2]": {"experiment": "AUC (all) in rat at 10 mg/kg by LC-MS/MS analysis", "format": "ADME, organism-based", "set-up": "dose 10 mg/kg", "details": "in vivo"}, "[3]": {"experiment": "Cmax in mouse at 5 mg/kg by LC-MS/MS analysis", "format": "ADME, organism-based", "set-up": "dose 5 mg/kg", "details": "in vivo"}, "[4]": {"experiment": "Half life in cynomolgous monkey at 10 mg/kg by LC-MS/MS analysis", "format": "ADME, organism-based, Macaca fascicularis", "details": "cynomolgus monkey, in vivo"}, "[5]": {"experiment": "AUC (all) in cynomolgous monkey at 10 mg/kg by LC-MS/MS analysis", "format": "ADME, organism-based, Macaca fascicularis", "set-up": "dose 10 mg/kg", "details": "cynomolgus monkey, in vivo"}, "[6]": {"experiment": "Plasma protein binding in human at 2 to 50 uM", "format": "ADME, cell-free", "details": "dose 2-50 µM, read-out: PPB (converted)"}, "[7]": {"tested_on": "CD34-positive (myeloid/lymphoid) cell", "experiment": "Protection against chemotherapy-induced cell cycle arrest in human CD34+ cells assessed as DNA damage by measuring gamma-H2AX level at 1 uM preincubated for 24 hrs followed by topotecan addition measured after 24 hrs", "format": "functional, cell-based", "details": "time 48.0 hrs"}, "[8]": {"experiment": "Cmax in cynomolgous monkey at 10 mg/kg by LC-MS/MS analysis", "format": "ADME, organism-based, Macaca fascicularis", "set-up": "dose 10 mg/kg", "details": "cynomolgus monkey, in vivo"}, "Fibroblast [9]": {"tested_on": "Fibroblast", "experiment": "Protection against chemotherapy-induced apoptosis in human fibroblast assessed as decrease in caspase-3/7 level preincubated for 16 hrs followed by gemcitabine.HCl addition measured after 32 hrs", "format": "functional, cell-based", "details": "dose 4.6-10 µM, time 48.0 hrs"}, "Mus musculus": {"tested_on": "Mus musculus", "experiment": "Upregulation of p21 expression level in gastrointestinal tract of C57BL/6 mouse at 2.4 mg/kg, iv administered every 8 hrs measured for 16 hrs by immunohistochemical analysis", "format": "functional, organism-based"}, "[10]": {"experiment": "AUC (all) in cynomolgous monkey at 5 mg/kg by LC-MS/MS analysis", "format": "ADME, organism-based, Macaca fascicularis", "set-up": "dose 5 mg/kg", "details": "cynomolgus monkey, in vivo"}, "MCF7 [11]": {"tested_on": "MCF7", "experiment": "Antitumor activity against human MCF7 cells xenografted in athymic nude BALB/c mouse assessed as upregulation of p21 protein level at 20 mg/kg, iv by immunohistochemical analysis", "format": "functional, organism-based", "details": "time <= 48.0 hrs, TDE = time-dependent effect"}, "Fibroblast [12]": {"tested_on": "Fibroblast", "experiment": "Protection against chemotherapy-induced apoptosis in human fibroblast assessed as decrease in caspase-3/7 level preincubated for 16 hrs followed by oxaliplatin addition measured after 32 hrs", "format": "functional, cell-based", "details": "dose 4.6-10 µM, time 48.0 hrs"}, "MCF7 [13]": {"tested_on": "MCF7", "experiment": "Antitumor activity against human MCF7 cells xenografted in athymic nude BALB/c mouse assessed as decrease in BrdU incorporation at 20 mg/kg, iv by immunohistochemical analysis", "format": "functional, organism-based", "details": "time <= 48.0 hrs, TDE = time-dependent effect"}}, "note": "Active and inactive are the calls of the source. No cut-off for these calls is given here."}
{"smiles": "CC(=O)N[C@@H](CC(C)C)C(=O)N[C@H](C(=O)N[C@@H](Cc1ccccc1)C(=O)N[C@]1(C)CCCCCC/C=C/CCC[C@@](C)(C(=O)N[C@@H](C)C(=O)N[C@@H](C)C(=O)N[C@@H](C)C(=O)N[C@@H](C)C(=O)N[C@@H](C)C(=O)N[C@H](C)C(N)=O)NC(=O)[C@H](CC(C)C)NC(=O)[C@H](CCC(N)=O)NC(=O)[C@H](C)NC(=O)[C@H](Cc2c[nH]c3ccccc23)NC(=O)[C@H](Cc2ccc(O)cc2)NC(=O)[C@H](CCC(=O)O)NC1=O)[C@@H](C)O", "values": [{"measurement": "Cmax", "setting": "[1]", "value": 49.9, "unit": "µg/mL"}, {"measurement": "Activity", "setting": "BT-474", "value": "inactive"}, {"measurement": "AUC", "setting": "[2]", "value": 562, "unit": "µg·h/mL"}, {"measurement": "Cmax", "setting": "[3]", "value": 67.8, "unit": "µg/mL"}, {"measurement": "half-life", "setting": "[4]", "value": 5.5, "unit": "h"}, {"measurement": "AUC", "setting": "[5]", "value": 1350, "unit": "µg·h/mL"}, {"measurement": "fraction unbound at up to 50 µM", "setting": "[6]", "value": 0.08}, {"measurement": "Activity", "setting": "[7]", "value": "inactive"}, {"measurement": "Cmax", "setting": "[8]", "value": 236, "unit": "µg/mL"}, {"measurement": "Activity", "setting": "Fibroblast [9]", "value": "Dose-Dependent Effect"}, {"measurement": "Activity", "setting": "Mus musculus", "value": "Active"}, {"measurement": "AUC", "setting": "[10]", "value": 914, "unit": "µg·h/mL"}, {"measurement": "Activity", "setting": "MCF7 [11]", "value": "Tde"}, {"measurement": "Activity", "setting": "Fibroblast [12]", "value": "Dose-Dependent Effect"}, {"measurement": "Activity", "setting": "MCF7 [13]", "value": "Tde"}]}
